Assay results as given in patent US20160067277A1, “USE OF XENON FOR LIMITING TUMOR CELL MIGRATION” (L'Air Liquide, Societe Anonyme pour I'Etude et …, priority 2013, published 2016).

Tests used:
Assay type in all cases: cell-based, human
[1] = system: MCF7 cells; experiment: Oris cell migration test, fluorescence-labeled cells (RFU); settings: for % cell migration relative to the control: MCF7 (ER+) cells, migration at 24 h, control atmosphere = 100%
Experimental: (§1) ER− and ER+ cancer cells (Estrogen Receptor) of a human adenocarcinoma (breast cancer), namely lines of MDA-MB-231 and MCF7 cells, were deposited on plates coated with collagen, where they adhered. These cell lines are available commercially.
(§2) The plates with the adhering cells were then placed in a sealed chamber, saturated, for 1 h, 3 h and 5 h, with: • either a control atmosphere (control), namely a gas mixture formed from 25% O2, 5% CO2 and 70% N2 (vol %); • or a test atmosphere based on xenon according to the invention, namely a gas mixture formed from 25% O2, 5% CO2 and 70% xenon (vol %).
(§3) For its part, cell migration at 24 h was determined after 24 hours, using fluorescence-labeled cells in the context of an Oris™ cell migration test. In this test, the labeled cells migrate into a target zone, where they are then quantified by a fluorescent plate reader for measuring the relative fluorescent units (RFU)).
(§4) More precisely, as already noted, several tests (3 or 4 tests) were conducted with the different gas atmospheres for different exposure times, and the results were expressed in the form of relative fluorescent units (RFU).
(§5) The migration of the cancer cells exposed to the atmosphere containing xenon was calculated as a percentage (%) relative to that of the cells exposed to the control atmosphere, i.e. exposed to an atmosphere without xenon (RFU fixed at 100%), and in the same conditions.
(§6) A two-way t-test for statistical analysis of the difference between the cell lines and the probability values P below 0.05 were considered significant.

[2] = system: MDA-MB-231 cells; experiment: as above; settings: for % cell migration relative to the control: MDA-MB-231 (ER-) cells, migration at 24 h, control atmosphere = 100%
Experimental: as §1, §2, §3, §4, §5, §6

[3] = system: MCF7 cells; experiment: MTT cell survival test; settings: 1 h, 3 h, 5 h exposure to 70% xenon, MTT after 24 hours
Experimental: as §1, §2
(§7) Cell survival was determined after 24 hours, using an MTT (for methylthaizolyldiphenyl-tetrazolium bromide) test. This test is a conventional test for determining cellular viability. It is based on detection of living cells only, via the activity of their mitochondrial dehydrogenases, which makes it possible to evaluate cytotoxicity, proliferation and/or cellular activation.

[4] = system: MDA-MB-231 cells; experiment: MTT cell survival test; settings: 1 h, 3 h, 5 h exposure to 70% xenon, MTT after 24 hours
Experimental: as §1, §2, §7

[5] = 1 h exposure to 25% O2, 5% CO2, 70% xenon
[6] = 3 h exposure to 25% O2, 5% CO2, 70% xenon
[7] = 5 h exposure to 25% O2, 5% CO2, 70% xenon

[Xe] [xenon]
effect on cell migration (in words) ([1]; ER+ MCF7 cells, starting from 1 hour of exposure, FIG. 2): significantly reduces the migration
% cell migration relative to the control [1, 5]: 58 ± 12%
% cell migration relative to the control [1, 6]: 65 ± 12%
% cell migration relative to the control [1, 7]: 65 ± 12%
effect on cell migration (in words) ([2]; ER- MDA-MB-231 cells, starting from 1 hour of exposure, FIG. 1): significantly reduces the migration
% cell migration relative to the control [2, 5]: 59 ± 13%
% cell migration relative to the control [2, 6]: 64 ± 10%
% cell migration relative to the control [2, 7]: 71 ± 9%
effect on cell survival [3]: does not have a significant effect on cell survival
effect on cell survival [4]: does not have a significant effect on cell survival
